Test results from paper PMC10536189 (Microorganisms, 2023).
Like-named read-outs stand apart in the source and are kept apart here. Where no end group is shown, it is not given here.

Assays:
M. tuberculosis = type: cell-based, Mycobacterium tuberculosis (laboratory strain H37Rv); settings: for Time to Positivity (Days.Hours) Experiment 2a / Time to Positivity (Days.Hours) Experiment 2b: diluted inoculum; for Time to Positivity (Days.Hours) Experiment 2a: technical repeat 2a, TB control (no peptide) 15.01; for Time to Positivity (Days.Hours) Experiment 2b: technical repeat 2b, TB control (no peptide) 15.20; for Time to Positivity (Days.Hours) Experiment 1a / Time to Positivity (Days.Hours) Experiment 1b: less diluted inoculum; for Time to Positivity (Days.Hours) Experiment 1a: technical repeat 1a, TB control (no peptide) 7.02; for Time to Positivity (Days.Hours) Experiment 1b: technical repeat 1b, TB control (no peptide) 7.01; for Average % Faster than Control: negative = slower
[1] = test system: Mycobacterium avium subsp. paratuberculosis (MAP); type: cell-based; settings: for Effect on growth of MAP compared to control: peptide 20 µg/mL, 37 °C
[2] = test system: Mycobacterium tuberculosis (MTB); type: cell-based, Mycobacterium tuberculosis (laboratory strain H37Rv)
M. bovis = type: cell-based
Mycobacterium abscessus = type: cell-based, Mycobacterium abscessus (clinical human isolate); settings: Peptide 14 at 20 µg/mL
[3] = test system: Mycobacterium avium-intracellulare; type: cell-based, Mycobacterium intracellulare serotype 7 NCTC10682; settings: Peptide 14 at 20 µg/mL
Mycobacterium marinum = type: cell-based, Mycobacterium marinum NCTC 2275; settings: Peptide 14 at 20 µg/mL, 30 °C
Mycobacterium celatum = type: cell-based, Mycobacterium celatum (clinical isolate); settings: Peptide 14 at 20 µg/mL
[4] = peptide 10 µg/mL, overall average of the averages of experiments 1a/1b and 2a/2b
[5] = crude peptide 10 µg/mL, average of experiments 1 and 2

With “LLGDFFRKSKEKIGKEFKRIVQRIKDFLRNLVPRTES [Peptide 78, reference compound]” the “Effect on TTP of MTB in words” value (M. tuberculosis; peptide 10 µg/mL, MGIT) was “lower TTP”, the “Time to Positivity (Days.Hours) Experiment 2a” value (M. tuberculosis; peptide 10 µg/mL, MGIT) was 14.15 Days.Hours and the “Time to Positivity (Days.Hours) Experiment 2b” value (M. tuberculosis; peptide 10 µg/mL, MGIT) was 15.00 Days.Hours. For the same substance, the “Time to Positivity (Days.Hours) Experiment 1a” value (M. tuberculosis; peptide 10 µg/mL, MGIT) was 6.08 Days.Hours, the “Time to Positivity (Days.Hours) Experiment 1b” value (M. tuberculosis; peptide 10 µg/mL, MGIT) was 6.09 Days.Hours and the “Average % Faster than Control” value (M. tuberculosis; [4]) was 5.8%.
LSFLPKVIGVIGHLIH [Fallaxidin/Frog *] was tested, and the “Time to Positivity (Day.Hours) Experiment 1” value (M. tuberculosis) was 11.18 Day.Hours, the “Time to Positivity (Day.Hours) Experiment 2” value (M. tuberculosis) was 8.13 Day.Hours and the “Average % Faster than Control” value (M. tuberculosis; [5]) was 3.2%.
In the case of LVPLFLSKLICFITKKC [Brevinin 1Tb/Frog], the “Time to Positivity (Day.Hours) Experiment 1” value (M. tuberculosis) is reported as 11.10 Day.Hours, the “Time to Positivity (Day.Hours) Experiment 2” value (M. tuberculosis) is reported as 8.15 Day.Hours and the “Average % Faster than Control” value (M. tuberculosis; [5]) is reported as 4.2%.
“OdVP2/Wasp: naturally occurring peptide, APD3, wasp (ILGIITSLLKSLGKK)” was tested, and the “Time to Positivity (Day.Hours) Experiment 1” value (M. tuberculosis) was 10.22 Day.Hours, the “Time to Positivity (Day.Hours) Experiment 2” value (M. tuberculosis) was 8.11 Day.Hours and the “Average % Faster than Control” value (M. tuberculosis; [5]) was 7.3%.
With “Pd_mastoparan PDD-B/Wasp: naturally occurring peptide, APD3, wasp (INWLKLGKKILGAL)” the “Time to Positivity (Day.Hours) Experiment 1” value (M. tuberculosis) was 11.06 Day.Hours, the “Time to Positivity (Day.Hours) Experiment 2” value (M. tuberculosis) was 8.09 Day.Hours and the “Average % Faster than Control” value (M. tuberculosis; [5]) was 6.3%.
RGGRLCYCRRRFCVCV [Protegrin 1/Pig *] was tested, and the “Time to Positivity (Day.Hours) Experiment 1” value (M. tuberculosis) was 10.23 Day.Hours, the “Time to Positivity (Day.Hours) Experiment 2” value (M. tuberculosis) was 6.22 Day.Hours and the “Average % Faster than Control” value (M. tuberculosis; [5]) was 15.3%.
In the case of “RLARIVVIRVRR-CONH2 (RLARIVVIRVRR-NH2) [Peptide 70]”, the “Time to Positivity (Days.Hours) Experiment 2a” value (M. tuberculosis; peptide 10 µg/mL, MGIT) is reported as 14.22 Days.Hours, the “Time to Positivity (Days.Hours) Experiment 2b” value (M. tuberculosis; peptide 10 µg/mL, MGIT) is reported as 15.06 Days.Hours and the “Time to Positivity (Days.Hours) Experiment 1a” value (M. tuberculosis; peptide 10 µg/mL, MGIT) is reported as 6.03 Days.Hours. The “Time to Positivity (Days.Hours) Experiment 1b” value (M. tuberculosis; peptide 10 µg/mL, MGIT) was 6.19 Days.Hours, the “Average % Faster than Control” value (M. tuberculosis; [4]) was 4.2% and the “Effect on growth of MAP compared to control” value [1] was “no discernible effect on the growth”.
In the case of “RLARIVVIRWAR-CONH2 (RLARIVVIRWAR-NH2) [Peptide 72]”, the “Time to Positivity (Days.Hours) Experiment 2a” value (M. tuberculosis; peptide 10 µg/mL, MGIT) is reported as 15.01 Days.Hours, the “Time to Positivity (Days.Hours) Experiment 2b” value (M. tuberculosis; peptide 10 µg/mL, MGIT) is reported as 15.13 Days.Hours and the “Time to Positivity (Days.Hours) Experiment 1a” value (M. tuberculosis; peptide 10 µg/mL, MGIT) is reported as 6.22 Days.Hours. For the same substance, the “Time to Positivity (Days.Hours) Experiment 1b” value (M. tuberculosis; peptide 10 µg/mL, MGIT) was 7.01 Days.Hours, the “Average % Faster than Control” value (M. tuberculosis; [4]) was −0.2% and the “Effect on growth of MAP compared to control” value [1] was “significant reduction in the growth”.
For “RRWRIVVIRVRR-CONH2 (RRWRIVVIRVRR-NH2) [Peptide 69]”, the “Effect on growth of MTB compared to control” value [2] was “slight improvements”, the “Effect on TTP of MTB in words” value (M. tuberculosis; peptide 10 µg/mL, MGIT) was “strong hormetic response” and the “Time to Positivity (Days.Hours) Experiment 2a” value (M. tuberculosis; peptide 10 µg/mL, MGIT) was 13.12 Days.Hours. The “Time to Positivity (Days.Hours) Experiment 2b” value (M. tuberculosis; peptide 10 µg/mL, MGIT) was 13.02 Days.Hours, the “Time to Positivity (Days.Hours) Experiment 1a” value (M. tuberculosis; peptide 10 µg/mL, MGIT) was 6.02 Days.Hours and the “Time to Positivity (Days.Hours) Experiment 1b” value (M. tuberculosis; peptide 10 µg/mL, MGIT) was 6.02 Days.Hours. The “Average % Faster than Control” value (M. tuberculosis; [4]) was 12.8%.
With RWCFRVCYRGICYRKCR [Tachyplasin II/Crab] the “Time to Positivity (Day.Hours) Experiment 1” value (M. tuberculosis) was 10.18 Day.Hours, the “Time to Positivity (Day.Hours) Experiment 2” value (M. tuberculosis) was 8.06 Day.Hours and the “Average % Faster than Control” value (M. tuberculosis; [5]) was 9.1%.
“RWCVYAYVRVRGVLVR [Arenicin 1/Annelid worm *]” was tested, and the “Time to Positivity (Day.Hours) Experiment 1” value (M. tuberculosis) was 10.15 Day.Hours, the “Time to Positivity (Day.Hours) Experiment 2” value (M. tuberculosis) was 8.02 Day.Hours and the “Average % Faster than Control” value (M. tuberculosis; [5]) was 10.5%.
In the case of SAPRGCWTKSYPPKPCK [Ranacyclin E/Frog], the “Time to Positivity (Day.Hours) Experiment 1” value (M. tuberculosis) is reported as 10.07 Day.Hours, the “Time to Positivity (Day.Hours) Experiment 2” value (M. tuberculosis) is reported as 8.01 Day.Hours and the “Average % Faster than Control” value (M. tuberculosis; [5]) is reported as 12.2%.
With SLLSLIRKLIT [Decoralin/Wasp] the “Time to Positivity (Day.Hours) Experiment 1” value (M. tuberculosis) was 11.12 Day.Hours, the “Time to Positivity (Day.Hours) Experiment 2” value (M. tuberculosis) was 8.04 Day.Hours and the “Average % Faster than Control” value (M. tuberculosis; [5]) was 6.3%.
With “VFHLLGKIIHHVGNFV [Clavanin C/Sea squirt, naturally occurring peptide, APD3, sea squirt]” the “Time to Positivity (Day.Hours) Experiment 1” value (M. tuberculosis; crude peptide 10 µg/mL, MGIT, independent experiment 1, Control (TB only) 11.10, inoculum emulsified through G25 needle) was 10.21 Day.Hours, the “Time to Positivity (Day.Hours) Experiment 2” value (M. tuberculosis; crude peptide 10 µg/mL, MGIT, independent experiment 2, Control (TB only) 9.10, inoculum emulsified through G25 needle) was 8.12 Day.Hours and the “Average % Faster than Control” value (M. tuberculosis; [5]) was 7.2%.
In the case of “VNWKKILGKIIKVVK [Lasioglossin LL-III/Bee]”, the “Time to Positivity (Day.Hours) Experiment 1” value (M. tuberculosis) is reported as 9.18 Day.Hours, the “Time to Positivity (Day.Hours) Experiment 2” value (M. tuberculosis) is reported as 8.08 Day.Hours and the “Average % Faster than Control” value (M. tuberculosis; [5]) is reported as 13.1%.
VRRFPWWWPFLRR [Tritrpticin/Pig] was tested, and the “Time to Positivity (Day.Hours) Experiment 1” value (M. tuberculosis) was 11.08 Day.Hours, the “Time to Positivity (Day.Hours) Experiment 2” value (M. tuberculosis) was 9.13 Day.Hours and the “Average % Faster than Control” value (M. tuberculosis; [5]) was −0.3%.
WCFRVCYKGFCYRKCR [Polyphemusin/Crab *] was tested, and the “Time to Positivity (Day.Hours) Experiment 1” value (M. tuberculosis) was 11.05 Day.Hours, the “Time to Positivity (Day.Hours) Experiment 2” value (M. tuberculosis) was 8.13 Day.Hours and the “Average % Faster than Control” value (M. tuberculosis; [5]) was 5.6%.
In the case of WGKLFKLGLHGIGLLH [NRC-15/Fish *], the “Time to Positivity (Day.Hours) Experiment 1” value (M. tuberculosis) is reported as 10.21 Day.Hours, the “Time to Positivity (Day.Hours) Experiment 2” value (M. tuberculosis) is reported as 8.07 Day.Hours and the “Average % Faster than Control” value (M. tuberculosis; [5]) is reported as 8.3%.
With WKIVFWWRR-NH2 [Peptide 14] the Effect on growth (M. bovis) was “growth stimulating effect”, the “Concentration at which growth inhibition of MTB is observed” value [2] was 50 µg/mL and the “Effect on growth of MTB compared to control” value [2] was “slight improvements”. The “Upper end of concentration range with hormetic response / growth stimulation in MTB” value [2] was 10 µg/mL, the Effect on growth (Mycobacterium abscessus) was “enhance the growth” and the Effect on growth [3] was “growth stimulating effect”. For the same substance, the “Effect on TTP of MTB in words” value (M. tuberculosis; peptide 10 µg/mL, MGIT) was “strong hormetic response”, the “Time to Positivity (Days.Hours) Experiment 2a” value (M. tuberculosis; peptide 10 µg/mL, MGIT) was 13.23 Days.Hours and the “Time to Positivity (Days.Hours) Experiment 2b” value (M. tuberculosis; peptide 10 µg/mL, MGIT) was 14.01 Days.Hours. The “Time to Positivity (Days.Hours) Experiment 1a” value (M. tuberculosis; peptide 10 µg/mL, MGIT) was 6.01 Days.Hours, the “Time to Positivity (Days.Hours) Experiment 1b” value (M. tuberculosis; peptide 10 µg/mL, MGIT) was 6.12 Days.Hours and the “Average % Faster than Control” value (M. tuberculosis; [4]) was 9.1%. For the same substance, the Effect on growth (Mycobacterium marinum) was “growth stimulating effect”, the Effect on growth (Mycobacterium celatum) was “growth stimulating effect” and the “Dependence of growth-enhancing effect on starting inoculum” value [1] was “lower inocula being more greatly affected”. For the same substance, the “Effect on growth of MAP compared to control” value [1] was “strongest effects”.
YAYVRIRGVLVRYRRC [Arenicin-2/Lugworm] was tested, and the “Time to Positivity (Day.Hours) Experiment 1” value (M. tuberculosis) was 11.13 Day.Hours, the “Time to Positivity (Day.Hours) Experiment 2” value (M. tuberculosis) was 8.03 Day.Hours and the “Average % Faster than Control” value (M. tuberculosis; [5]) was 6.3%.
For YQEPVLGPVRGPFPIIV [Casecidin 17/Cow], the “Time to Positivity (Day.Hours) Experiment 1” value (M. tuberculosis) was 11.12 Day.Hours, the “Time to Positivity (Day.Hours) Experiment 2” value (M. tuberculosis) was 8.14 Day.Hours and the “Average % Faster than Control” value (M. tuberculosis; [5]) was 4.1%.
rrwrivvirvrr-CONH2 [Peptide 69D] was tested, and the “Concentration at which growth inhibition of MTB is observed” value [2] was no less than 10 µg/mL, the “Concentration with strong sustained growth stimulation of MTB” value [2] was 10 ng/mL and the “Effect on growth of MAP (growth-enhancing activity) of protease-stabilised peptides” value ([1]; peptide 10 µg/mL, absorbance at 600 nm) was “growth-enhancing activity remained”.
